For 14 molecules, MIC results are on record in patent US20220177508A1, “C10-Cyclic Substituted 13-Membered Macrolides and Uses Thereof” (Zikani Therapeutics, Inc., priority 2018, published 2022).

The structures appear in SMILES notation. In brackets after ≈: the same amount, converted by molar mass. A value given as a limit tells only on which side of the number the result lay.

Type in all cases: cell-based
One test has as its system S. aureus MP-12. Nature of the test: Broth dilution MIC determination (CLSI), S. aureus MP-12. To be noted: Staphylococcus aureus, MP12; strain MP-12, broth dilution.
The test system of a further test is E. coli MP-4. Nature of the test: Broth dilution MIC determination (CLSI), E. coli MP-4. To be noted: Escherichia coli, MP4; strain MP-4, broth dilution; read-out: MIC E. coli MP-4.
A further test relates to K. pneumoniae MP-546. Briefly: Broth dilution MIC determination (CLSI), K. pneumoniae MP-546. Particulars: Klebsiella pneumoniae, MP546; strain MP-546, broth dilution. For orientation: Dilution methods test growth across graded concentrations, often in twofold steps.
Another test concerns P. aeruginosa MP-3. Nature of the test: Broth dilution MIC determination (CLSI), P. aeruginosa MP-3. To be noted: Pseudomonas aeruginosa, MP3; strain MP-3, broth dilution.
The next test deals with A. baumannii MP-15. Briefly: Broth dilution MIC determination (CLSI), A. baumannii MP-15. To be noted: Acinetobacter baumannii, MP15; strain MP-15, broth dilution; read-out: MIC A. baumanii MP-15.

As to `CO[C@]1(C)C[C@@H](C)CN(C)[C@H](c2ccc(-c3cccc(N)c3)cc2)COC(=O)C(C)(C)C(=O)[C@H](C)[C@H]1O[C@@H]1O[C@H](C)C[C@H](N(C)C)[C@H]1O` [Compound 93, (3R,6R,8R,9R,10R)-3-(3′-Amino-[1,1′-biphenyl]-4-yl)-9-(((2S,3R,4S,6R)-4-(dimethylamino)-3-hydroxy-6-methyltetrahydro-2H-pyran-2-yl)oxy)-8-methoxy-4,6,8,10,12,12-hexamethyl-1-oxa-4-azacyclotridecane-11,13-dione], the minimum inhibitory concentration (MIC) (commonly the lowest concentration found to suppress growth) against S. aureus MP-12 is 4 to 32 µg/mL (≈ 5.99 to 47.9 µM); with E. coli MP-4, 4 to 32 µg/mL (≈ 5.99 to 47.9 µM); in the test on K. pneumoniae MP-546 it was over 32 µg/mL; against P. aeruginosa MP-3, over 32 µg/mL; with A. baumannii MP-15 it was over 32 µg/mL.

Consider `CO[C@]1(C)C[C@@H](C)CN(C)[C@H]([C@H]2CCCN(C(=O)CN(C)C)C2)COC(=O)C(C)(C)C(=O)[C@H](C)[C@H]1O[C@@H]1O[C@H](C)C[C@H](N(C)C)[C@H]1O` [Compound 96, (3R,6R,8R,9R,10R)-9-(((2S,3R,4S,6R)-4-(dimethylamino)-3-hydroxy-6-methyltetrahydro-2H-pyran-2-yl)oxy)-3-((S)-1-(dimethylglycyl)piperidin-3-yl)-8-methoxy-4,6,8,10,12,12-hexamethyl-1-oxa-4-azacyclotridecane-11,13-dione], for which the MIC with S. aureus MP-12 was over 32 µg/mL; with E. coli MP-4, 4 to 32 µg/mL (≈ 5.98 to 47.8 µM); against K. pneumoniae MP-546, over 32 µg/mL; against P. aeruginosa MP-3 it was over 32 µg/mL; with A. baumannii MP-15 it was over 32 µg/mL.

As for `CO[C@]1(C)C[C@@H](C)CN(C)[C@@H](C2CCNCC2)COC(=O)C(C)(C)C(=O)[C@H](C)[C@H]1O[C@@H]1O[C@H](C)C[C@H](N(C)C)[C@H]1O` [Compound 98, (3S,6R,8R,9R,10R)-9-(((2S,3R,4S,6R)-4-(dimethylamino)-3-hydroxy-6-methyltetrahydro-2H-pyran-2-yl)oxy)-8-methoxy-4,6,8,10,12,12-hexamethyl-3-(piperidin-4-yl)-1-oxa-4-azacyclotridecane-11,13-dione], the MIC in the test with S. aureus MP-12 was 4 to 32 µg/mL (≈ 6.85 to 54.8 µM); in the test with E. coli MP-4, under 4 µg/mL; in the test with K. pneumoniae MP-546, 4 to 32 µg/mL (≈ 6.85 to 54.8 µM); against P. aeruginosa MP-3 it was over 32 µg/mL; in the test on A. baumannii MP-15, over 32 µg/mL.

Regarding `CO[C@]1(C)C[C@@H](C)CN(C)[C@@H](C2CN(C)C2)COC(=O)C(C)(C)C(=O)[C@H](C)[C@H]1O[C@@H]1O[C@H](C)C[C@H](N(C)C)[C@H]1O` [Compound 99, (3S,6R,8R,9R,10R)-9-(((2S,3R,4S,6R)-4-(dimethylamino)-3-hydroxy-6-methyltetrahydro-2H-pyran-2-yl)oxy)-8-methoxy-4,6,8,10,12,12-hexamethyl-3-(1-methylazetidin-3-yl)-1-oxa-4-azacyclotridecane-11,13-dione], the minimal inhibitory concentration (MIC) against S. aureus MP-12 was over 32 µg/mL; in the test with E. coli MP-4 it was under 4 µg/mL; with K. pneumoniae MP-546, under 4 µg/mL; against P. aeruginosa MP-3, over 32 µg/mL; in the test with A. baumannii MP-15 it was over 32 µg/mL.

As to `CO[C@]1(C)C[C@@H](C)CN(C)[C@H]([C@H]2CCN(C(=O)CN(C)C)C2)COC(=O)C(C)(C)C(=O)[C@H](C)[C@H]1O[C@@H]1O[C@H](C)C[C@H](N(C)C)[C@H]1O` [Compound 100, (3R,6R,8R,9R,10R)-9-(((2S,3R,4S,6R)-4-(Dimethylamino)-3-hydroxy-6-methyltetrahydro-2H-pyran-2-yl)oxy)-3-((S)-1-(dimethylglycyl)pyrrolidin-3-yl)-8-methoxy-4,6,8,10,12,12-hexamethyl-1-oxa-4-azacyclotridecane-11,13-dione], the MIC against S. aureus MP-12 is over 32 µg/mL; in the test with E. coli MP-4 it was 4 to 32 µg/mL (≈ 6.11 to 48.9 µM); with K. pneumoniae MP-546, 4 to 32 µg/mL (≈ 6.11 to 48.9 µM); against P. aeruginosa MP-3, over 32 µg/mL; with A. baumannii MP-15, over 32 µg/mL.

As to `CO[C@]1(C)C[C@@H](C)CN(C)[C@H](C2CN(Cc3ccccc3)C2)COC(=O)C(C)(C)C(=O)[C@H](C)[C@H]1O[C@@H]1O[C@H](C)C[C@H](N(C)C)[C@H]1O` [Compound 101, (3R,6R,8R,9R,10R)-3-(1-benzylazetidin-3-yl)-9-(((2S,3R,4S,6R)-4-(dimethylamino)-3-hydroxy-6-methyltetrahydro-2H-pyran-2-yl)oxy)-8-methoxy-4,6,8,10,12,12-hexamethyl-1-oxa-4-azacyclotridecane-11,13-dione], the MIC with S. aureus MP-12 was 4 to 32 µg/mL (≈ 6.19 to 49.5 µM); in the test on E. coli MP-4, under 4 µg/mL; in the test on K. pneumoniae MP-546, under 4 µg/mL; in the test on P. aeruginosa MP-3 it was over 32 µg/mL; in the test with A. baumannii MP-15, 4 to 32 µg/mL (≈ 6.19 to 49.5 µM).

On to `CO[C@]1(C)C[C@@H](C)CN(C)[C@@H](C2CCCCC2)COC(=O)C(C)(C)C(=O)[C@H](C)[C@H]1O[C@@H]1O[C@H](C)C[C@H](N(C)C)[C@H]1O` [Compound 102, (3S,6R,8R,9R,10R)-3-cyclohexyl-9-(((2S,3R,4S,6R)-4-(dimethylamino)-3-hydroxy-6-methyltetrahydro-2H-pyran-2-yl)oxy)-8-methoxy-4,6,8,10,12,12-hexamethyl-1-oxa-4-azacyclotridecane-11,13-dione], for which the MIC against S. aureus MP-12, in the test on E. coli MP-4, in the test on K. pneumoniae MP-546, against P. aeruginosa MP-3 and in the test with A. baumannii MP-15 was over 32 µg/mL in each case.

Turning to `CO[C@]1(C)C[C@@H](C)CN(C)[C@H]([C@H]2CCCN(C(C)C)C2)COC(=O)C(C)(C)C(=O)[C@H](C)[C@H]1O[C@@H]1O[C@H](C)C[C@H](N(C)C)[C@H]1O` [Compound 104, (3R,6R,8R,9R,10R)-9-(((2S,3R,4S,6R)-4-(dimethylamino)-3-hydroxy-6-methyltetrahydro-2H-pyran-2-yl)oxy)-3-((S)-1-isopropylpiperidin-3-yl)-8-methoxy-4,6,8,10,12,12-hexamethyl-1-oxa-4-azacyclotridecane-11,13-dione], the MIC in the test on S. aureus MP-12 was 4 to 32 µg/mL (≈ 6.39 to 51.1 µM); in the test with E. coli MP-4, under 4 µg/mL; against K. pneumoniae MP-546, 4 to 32 µg/mL (≈ 6.39 to 51.1 µM); against P. aeruginosa MP-3 it was over 32 µg/mL; with A. baumannii MP-15, over 32 µg/mL.

As to `CCCN1C[C@H](C)C[C@@](C)(OC)[C@H](O[C@@H]2O[C@H](C)C[C@H](N(C)C)[C@H]2O)[C@@H](C)C(=O)C(C)(C)C(=O)OC[C@H]1C1CN(CC(C)C)C1` [Compound 105, (3R,6R,8R,9R,10R)-9-(((2S,3R,4S,6R)-4-(dimethylamino)-3-hydroxy-6-methyltetrahydro-2H-pyran-2-yl)oxy)-3-(1-isobutylazetidin-3-yl)-8-methoxy-6,8,10,12,12-pentamethyl-4-propyl-1-oxa-4-azacyclotridecane-11,13-dione], the MIC was over 32 µg/mL in the test with S. aureus MP-12; 4 to 32 µg/mL (≈ 6.25 to 50 µM) in the test with E. coli MP-4; over 32 µg/mL in the test with K. pneumoniae MP-546; over 32 µg/mL in the test with P. aeruginosa MP-3; over 32 µg/mL with A. baumannii MP-15.

Take `CO[C@]1(C)C[C@@H](C)CN(C)[C@H]([C@@H]2CCCN2C)COC(=O)C(C)(C)C(=O)[C@H](C)[C@H]1O[C@@H]1O[C@H](C)C[C@H](N(C)C)[C@H]1O` [Compound 106, (3R,6R,8R,9R,10R)-9-(((2S,3R,4S,6R)-4-(dimethylamino)-3-hydroxy-6-methyltetrahydro-2H-pyran-2-yl)oxy)-8-methoxy-4,6,8,10,12,12-hexamethyl-3-((S)-1-methylpyrrolidin-2-yl)-1-oxa-4-azacyclotridecane-11,13-dione]: the MIC with S. aureus MP-12, in the test with E. coli MP-4, in the test on K. pneumoniae MP-546, with P. aeruginosa MP-3 and with A. baumannii MP-15 was over 32 µg/mL throughout.

On to `CO[C@]1(C)C[C@@H](C)CN(C)[C@H](C2CCN(C(=O)CNCC(C)C)CC2)COC(=O)C(C)C(=O)[C@H](C)[C@H]1O[C@@H]1O[C@H](C)C[C@H](N(C)C)[C@H]1O` (stereo partly drawn) [Compound 107, (3R,6R,8R,9R,10R)-9-(((2S,3R,4S,6R)-4-(dimethylamino)-3-hydroxy-6-methyltetrahydro-2H-pyran-2-yl)oxy)-3-(1-(isobutylglycyl)piperidin-4-yl)-8-methoxy-4,6,8,10,12-pentamethyl-1-oxa-4-azacyclotridecane-11,13-dione], for which the minimal inhibitory concentration (MIC) in the test on S. aureus MP-12 was over 32 µg/mL; with E. coli MP-4 it was 4 to 32 µg/mL (≈ 5.86 to 46.9 µM); against K. pneumoniae MP-546 it was 4 to 32 µg/mL (≈ 5.86 to 46.9 µM); against P. aeruginosa MP-3, over 32 µg/mL; in the test on A. baumannii MP-15, over 32 µg/mL.

In the case of `CO[C@]1(C)C[C@@H](C)CN(C)[C@@H]([C@@H]2CCN(C)C2)COC(=O)C(C)(C)C(=O)[C@H](C)[C@H]1O[C@@H]1O[C@H](C)C[C@H](N(C)C)[C@H]1O` [Compound 109, (3S,6R,8R,9R,10R)-9-(((2S,3R,4S,6R)-4-(Dimethylamino)-3-hydroxy-6-methyltetrahydro-2H-pyran-2-yl)oxy)-8-methoxy-4,6,8,10,12,12-hexamethyl-3-((R)-1-methylpyrrolidin-3-yl)-1-oxa-4-azacyclotridecane-11,13-dione], the minimum inhibitory concentration (MIC) is over 32 µg/mL with S. aureus MP-12; under 4 µg/mL in the test on E. coli MP-4; under 4 µg/mL in the test with K. pneumoniae MP-546; over 32 µg/mL against P. aeruginosa MP-3; over 32 µg/mL in the test on A. baumannii MP-15.

Consider `CO[C@]1(C)C[C@@H](C)CN(C)[C@@H]([C@@H]2CCN(CC(C)C)C2)COC(=O)C(C)(C)C(=O)[C@H](C)[C@H]1O[C@@H]1O[C@H](C)C[C@H](N(C)C)[C@H]1O` [Compound 110, (3S,6R,8R,9R,10R)-9-(((2S,3R,4S,6R)-4-(dimethylamino)-3-hydroxy-6-methyltetrahydro-2H-pyran-2-yl)oxy)-3-((R)-1-isobutylpyrrolidin-3-yl)-8-methoxy-4,6,8,10,12,12-hexamethyl-1-oxa-4-azacyclotridecane-11,13-dione], for which the minimal inhibitory concentration (MIC) in the test on S. aureus MP-12 is 4 to 32 µg/mL (≈ 6.39 to 51.1 µM); in the test with E. coli MP-4 it was under 4 µg/mL; with K. pneumoniae MP-546 it was under 4 µg/mL; in the test with P. aeruginosa MP-3 it was over 32 µg/mL; in the test with A. baumannii MP-15 it was over 32 µg/mL.

For `CO[C@]1(C)C[C@@H](C)CN(C)[C@H](C2CN(CC(C)C)C2)COC(=O)C(C)(C)C(=O)[C@H](C)[C@H]1O[C@@H]1O[C@H](C)C[C@H](N(C)C)[C@H]1O` [Compound 112], the minimal inhibitory concentration (MIC) is 4 to 32 µg/mL (≈ 6.54 to 52.3 µM) in the test on S. aureus MP-12; under 4 µg/mL with E. coli MP-4; under 4 µg/mL with K. pneumoniae MP-546; over 32 µg/mL against P. aeruginosa MP-3; 4 to 32 µg/mL (≈ 6.54 to 52.3 µM) with A. baumannii MP-15.
